Results as given in patent publication US11311523B2, “Pyridinone compound and use thereof” (KYUSHU UNIVERSITY, NATIONAL UNIVERSITY CORPORATION, priority 2015, dated 2022).

Tests used:
[1] = mouse body weight in the lung metastasis experiment; format: in vivo; conditions: 0.2, 0.6 or 2 mg/mouse iv, FIG. 17(D)
Experimental: (§1) Pharmacological Test 8 (Experiment for Inhibition of Lung Metastasis of Mouse Melanoma Cells)
(§2) Mouse melanoma B16F10 cells suspended in 200 μL of PBS(−) were injected (2.5 or 5×10^5 cells per mouse) into the tail vein of C57BL/6 mice (6 weeks old, female). […] For a control group, an equivalent amount of a solvent (a liquid mixture of PBS/CremophoreEL/ethanol (6:1:1)) alone was administered. The administration was performed 4 times in total: immediately before the cell transplantation, and day 1, day 3, and day 5 after the transplantation. Fourteen days after the first administration, the lung was excised from each mouse, and the number of tumor metastatic foci at the lung surface was counted.

[2] = tested on: human colon cancer cell line (DLD-1); assay: cellular invasion inhibition assay (Matrigel chamber); format: cell-based; conditions: FIG. 12(D)
Experimental: (§3) Pharmacological Test 2 (Cellular Invasion Inhibition Assay)
(§4) Three hundred microliters of a suspension of a mouse lung carcinoma cell line (3LL), a human fibrosarcoma cell line (HT-1080), or a human colon cancer cell line (DLD-1) in DMEM (serum free) was placed in the upper chamber with Matrigel (BD Biosciences) equilibrated with DMEM (serum free) for 120 minutes, while 500 μL of DMEM (with 10% FCS) was placed in the lower chamber. Each pyridinone compound or CPYPP dissolved at a predetermined concentration in DMSO was added to the culture media in both the upper and lower chambers. As a control, DMSO alone was added to the media. In all of the experiments, the final DMSO concentration was adjusted to 0.2%.
(§5) After the resulting products were cultured at 37° C. under 5% CO2 for 22 hours, the chambers were removed, and the culture media were removed. […] After staining, the inserts were cut out with a blade to prepare slides, and the cells were counted under an optical microscope.
(§6) The results were evaluated based on percent cell invasion (%: Invasion) and percent inhibition (%: inhibition). The percent cell invasion was obtained by converting the number of invading cells under each condition to percentage, taking the number of invading cells in the control, to which DMSO was added alone, as 100%; and the percent inhibition was obtained by deducting the percent cell invasion from 100.

[3] = tested on: human fibrosarcoma cell line (HT-1080); assay: as above; format: cell-based; conditions: FIG. 12(C)
Experimental: as §3, §4, §5, §6

[4] = tested on: mouse melanoma B16F10 cells; assay: inhibition of lung metastasis of mouse melanoma cells; format: in vivo
Experimental: as §1, §2

Compound	mouse body weight [1]	inhibition of DLD-1 cell invasion [2]	inhibition of HT-1080 cell invasion [3]	metastasis of melanoma cells to the lung ([4]; C57BL/6 mice, 2 mg/mouse iv, 4 times, FIG. 17(B))	number of cells that underwent metastasis to the lung, reduced to ([4]; dose of about 0.2 mg to a mouse, iv 4 times, FIG. 17(C))
O=C(Cn1cc(S(=O)(=O)N2CCCC2)ccc1=O)c1ccc(-c2cccc(C(F)(F)F)c2)cc1 [TS-45, 1-(2-oxo-2-(3′-(trifluoromethyl)-[1,1′-biphenyl]-4-yl)ethyl)-5-(pyrrolidin-1-ylsulfonyl)pyridin-2(1H)-one]	not affected	inhibits DLD-1 cell invasion	inhibit HT-1080 cell invasion	significantly inhibited	about 20%
O=C(Cn1cc(S(=O)(=O)N2CCCC2)ccc1=O)c1ccc(-c2ccc3ccccc3c2)cc1 [TS-28, 1-(2-(4-(naphthalen-2-yl)phenyl)-2-oxoethyl)-5-(pyrrolidin-1-ylsulfonyl)pyridin-2(1H)-one]			inhibit HT-1080 cell invasion		
